In patent publication US20210189342A1, “COMPOSITIONS AND METHODS FOR MODULATING MONOCYTE AND MACROPHAGE INFLAMMATORY PHENOTYPES AND IMMUNOTHERAPY USES THEREOF” (Verseau Therapeutics, Inc., priority 2018, published 2021):

Tests used:
Type in all cases: cell-based, human
CD33 = experiment: siRNA dose response, CD33 mRNA knockdown, bDNA Assay; details: SK-MEL-2, 24 hr
Protocol: (§1) Dose response curves for siRNAs were generated in vitro using a variety of cell lines according to Table 4.
(§2) Briefly, cells were seeded in 96-well plates and reverse transfected with siRNA, Lipofectamine® 2000 (0.5 uL/well; ThermoFisher), and, in some cases, a reporter plasmid (50 ng/well). The reporter plasmid (psiCHECK™-2, Promega) encoded both firefly luciferase and the gene of interest fused to renilla luciferase; silencing of the gene of interest results in proportional silencing of renilla luciferase but leaves firefly luciferase unaffected as an internal control.
(§3) After 24 hr incubation at 37° C., mRNA knockdown was measured using an endpoint assay. For targets without a reporter plasmid, a branched DNA (bDNA) assay was performed according to the manufacturer's instructions (QuantiGene® Singleplex Gene Expression Assay, ThermoFisher) to measure both the target gene and GAPDH (housekeeping gene) mRNA. Data are plotted as siRNA concentration (nM) vs. remaining mRNA (ratio of target gene to GAPDH, normalized to mock siRNA-transfected cells). For targets with a reporter plasmid, a Dual-Glo® Luciferase Assay was performed according to the manufacturer's instructions (Promega) to measure firefly and renilla luciferase expression. Data are plotted as siRNA concentration (nM) vs. remaining mRNA (ratio of renilla to firefly luminescence, normalized to mock siRNA-transfected cells).
(§4) For all dose response curves, a 4-parameter logistic model was applied to determine the IC50 of each siRNA sequence (Table 5 and FIG. 2). Data shown in Table 5 and FIG. 2 represent the mean of quadruplicates, +/−standard deviation.

IGSF6 = experiment: siRNA dose response, IGSF6 mRNA knockdown, Dual-Glo Luciferase Assay; details: Hepa1-6 + reporter plasmid, 24 hr
Protocol: as §1, §2, §3, §4

LST1 = experiment: siRNA dose response, LST1 mRNA knockdown, bDNA Assay; details: THP-1, 24 hr
Protocol: as §1, §2, §3, §4

CXorf21 = experiment: siRNA dose response, CXorf21 mRNA knockdown, bDNA Assay; details: THP-1, 24 hr
Protocol: as §1, §2, §3, §4

CLEC7A = experiment: siRNA dose response, CLEC7A mRNA knockdown, Dual-Glo Luciferase Assay; details: Hepa1-6 + reporter plasmid, 24 hr
Protocol: as §1, §2, §3, §4

XD-09736: siRNA targeting CD33 (sense 5'-ucAccuAuGuuccacAGAAdTsdT-3'; antisense 5'-UUCUGUGGAAcAuAGGUGAdTsdT-3'; as printed in the source, key not given here)
IC50 (CD33): 0.176 nM

XD-09647: siRNA targeting IGSF6 (sense 5'-ggccAuAGAAAcGuuuuAAdTsdT-3'; antisense 5'-UuAAAACGUUUCuAUGGCCdTsdT-3'; as printed in the source, key not given here)
IC50 (IGSF6): 0.069 nM

XD-09648: siRNA targeting IGSF6 (sense 5'-ccAuAGAAAcGuuuuAAuudTsdT-3'; antisense 5'-AAUuAAAACGUUUCuAUGGdTsdT-3'; as printed in the source, key not given here)
IC50 (IGSF6): 0.503 nM

XD-09754: siRNA targeting LST1 (sense 5'-caAGGAGGAuccAaGAGcudTsdT-3'; antisense 5'-AGCUCUUGGAUCCUCCUUGdTsdT-3'; RNA with 2'-O-methyl and phosphorothioate modifications, case key not given here, as printed in the source, key not given here)
IC50 (LST1): 0.052 nM

XD-10508: siRNA targeting CXorf21 (sense 5'-caAuGuAAAuccAuAGAGAdTsdT-3'; antisense 5'-UCUCuAUGGAUUuAcAUUGdTsdT-3'; as printed in the source, key not given here)
IC50 (CXorf21): 1.65 nM

XD-09642: siRNA targeting IGSF6 (sense 5'-gaAGcGAGAGcuAaAcAGAdTsdT-3'; antisense 5'-UCUGUUuAGCUCUCGCUUCdTsdT-3'; RNA with 2'-O-methyl and phosphorothioate modifications, case key not given here, as printed in the source, key not given here)
IC50 (IGSF6): 0.035 nM

XD-09750: siRNA targeting LST1 (sense 5'-cuGAucAuuucGccuAAAAdTsdT-3'; antisense 5'-UUUuAGGCGAAAUGAUcAGdTsdT-3'; RNA with 2'-O-methyl and phosphorothioate modifications, case key not given here, as printed in the source, key not given here)
IC50 (LST1): 3.59 nM

XD-10505: siRNA targeting CXorf21 (sense 5'-cauuAuGGAcAccguGuuudTsdT-3'; antisense 5'-AAAcACGGUGUCcAuAAUGdTsdT-3'; RNA with 2'-O-methyl and phosphorothioate modifications, case key not given here, as printed in the source, key not given here)
IC50 (CXorf21): 13.1 nM

XD-09649: siRNA targeting IGSF6 (sense 5'-acAuAuAucAucAgGucuudTsdT-3'; antisense 5'-AAGACCUGAUGAuAuAUGUdTsdT-3'; RNA with 2'-O-methyl and phosphorothioate modifications, case key not given here, as printed in the source, key not given here)
IC50 (IGSF6): 0.503 nM

XD-09738: siRNA targeting CD33 (sense 5'-ccAGAGcAGGAGugGuucAdTsdT-3'; antisense 5'-UGAACcACUCCUGCUCUGGdTsdT-3'; RNA with 2'-O-methyl and phosphorothioate modifications, case key not given here, as printed in the source, key not given here)
IC50 (CD33): 0.22 nM

XD-09751: siRNA targeting LST1 (sense 5'-cauuucGccuAAAaGAGcAdTsdT-3'; antisense 5'-UGCUCUUUuAGGCGAAAUGdTsdT-3'; RNA with 2'-O-methyl and phosphorothioate modifications, case key not given here, as printed in the source, key not given here)
IC50 (LST1): 1.54 nM

XD-09752: siRNA targeting LST1 (sense 5'-gccuAAAAGAGcAaGGAcudTsdT-3'; antisense 5'-AGUCCUUGCUCUUUuAGGCdTsdT-3'; RNA with 2'-O-methyl and phosphorothioate modifications, case key not given here, as printed in the source, key not given here)
IC50 (LST1): 0.737 nM

XD-10502: siRNA targeting CXorf21 (sense 5'-cuGucAGAAGGGuaucucAdTsdT-3'; antisense 5'-UGAGAuACCCUUCUGAcAGdTsdT-3'; RNA with 2'-O-methyl and phosphorothioate modifications, case key not given here, as printed in the source, key not given here)
IC50 (CXorf21): 6.03 nM

XD-09737: siRNA targeting CD33 (sense 5'-cccAAcAAcuGGuaucuuudTsdT-3'; antisense 5'-AAAGAuACcAGUUGUUGGGdTsdT-3'; RNA with 2'-O-methyl and phosphorothioate modifications, case key not given here, as printed in the source, key not given here)
IC50 (CD33): 0.334 nM

XD-09643: siRNA targeting IGSF6 (sense 5'-guGcucGGcGuAuuuuucAdTsdT-3'; antisense 5'-UGAAAAAuACGCCGAGcACdTsdT-3'; as printed in the source, key not given here)
IC50 (IGSF6): 0.077 nM

XD-10561: siRNA targeting CLEC7A (sense 5'-ggucAAGAuAAAugcAGAAdTsdT-3'; antisense 5'-UUCUGcAUUaAUCUUAACCdTsdT-3'; RNA with 2'-O-methyl and phosphorothioate modifications, case key not given here, as printed in the source, key not given here)
IC50 (CLEC7A): 0.009 nM

XD-10564: siRNA targeting CLEC7A (sense 5'-ggGuAAGccAuAAgcGaaudTsdT-3'; antisense 5'-AUUCGCUuAUGGCUuACCCdTsdT-3'; RNA with 2'-O-methyl and phosphorothioate modifications, case key not given here, as printed in the source, key not given here)
IC50 (CLEC7A): < 0.004 nM

XD-09734: siRNA targeting CD33 (sense 5'-acuccucGGuGcucAuAAudTsdT-3'; antisense 5'-AUuAUGAGcACCGAGGAGUdTsdT-3'; as printed in the source, key not given here)
IC50 (CD33): 0.74 nM

XD-10562: siRNA targeting CLEC7A (sense 5'-agGuAGGcuAGuAuuAuuudTsdT-3'; antisense 5'-AAAuAAuACuAGCCuACCUdTsdT-3'; as printed in the source, key not given here)
IC50 (CLEC7A): 0.033 nM

XD-09645: siRNA targeting IGSF6 (sense 5'-agAAcuAuAccAuaAGAGAdTsdT-3'; antisense 5'-UCUCUuAUGGuAuAGUUCUdTsdT-3'; as printed in the source, key not given here)
IC50 (IGSF6): 0.034 nM

XD-09756: siRNA targeting LST1 (sense 5'-ucucGAGccuccGuucAAAdTsdT-3'; antisense 5'-UUUGAACGGAGGCUCGAGAdTsdT-3'; RNA with 2'-O-methyl and phosphorothioate modifications, case key not given here, as printed in the source, key not given here)
IC50 (LST1): 6.6 nM

XD-09735: siRNA targeting CD33 (sense 5'-caAcGucAccuAuguuccAdTsdT-3'; antisense 5'-UGGAAcAuAGGUGACGUUGdTsdT-3'; as printed in the source, key not given here)
IC50 (CD33): 0.818 nM

XD-09758: siRNA targeting LST1 (sense 5'-ugAucAucAucAAaAcuuAdTsdT-3'; antisense 5'-uAAGUUUUGAUGAUGAUcAdTsdT-3'; as printed in the source, key not given here)
IC50 (LST1): 8.21 nM

XD-09755: siRNA targeting LST1 (sense 5'-ggAuccAAGAGcugAcuAudTsdT-3'; antisense 5'-AuAGUcAGCUCUUGGAUCCdTsdT-3'; RNA with 2'-O-methyl and phosphorothioate modifications, case key not given here, as printed in the source, key not given here)
IC50 (LST1): 0.046 nM

XD-10568: siRNA targeting CLEC7A (sense 5'-ccuAGAAucuuGuauAAuAdTsdT-3'; antisense 5'-uAUuAuAcAAGAUUCuAGGdTsdT-3'; as printed in the source, key not given here)
IC50 (CLEC7A): 0.016 nM

XD-09732: siRNA targeting CD33 (sense 5'-ggccccAGGAcuAcucAcudTsdT-3'; antisense 5'-AGUGAGuAGUCCUGGGGCCdTsdT-3'; as printed in the source, key not given here)
IC50 (CD33): 5.4 nM

XD-09646: siRNA targeting IGSF6 (sense 5'-ccAuAAGAGAcAuguGGAAdTsdT-3'; antisense 5'-UUCcAcAUGUCUCUuAUGGdTsdT-3'; RNA with 2'-O-methyl and phosphorothioate modifications, case key not given here, as printed in the source, key not given here)
IC50 (IGSF6): 0.01 nM
